Laboratory results taken from the NIST ThermoML archive (doi:10.1016/j.tca.2018.11.018).

Tests used:
[1] = for Triple point temperature: Crystal 2, DSC
[2] = Molar enthalpy of transition or fusion; conditions: DSC
[3] = xn = mol fraction of the nth substance listed; conditions: 100 kPa, Liquid, x2 = 0; for viscosity: Falling or rolling sphere viscometry; for mass density: Vibrating tube method

CCCC[n+]1ccccc1.[Br-] [1-butylpyridinium bromide]
Conditions	Molar enthalpy of transition or fusion [kcal/mol]	Normal melting temperature [°C]
[1], Crystal 1, DTA	–	103.68
[2], Crystal 1	4.71	–

CCCC[N+]1(C)CCCCC1.[Br-] [N-butyl-N-methylpiperidinium bromide]
Conditions	Molar enthalpy of transition or fusion [kcal/mol]	Normal melting temperature [°C]
[1], Crystal 1, DTA	–	240.67
[2], Crystal 2	0.0153	–

Conditions	Triple point temperature [K]
[1]	339.53

CC[N+]1(C)CCCCC1.[Br-] [N-ethyl-N-methylpiperidinium bromide]
Conditions	Molar enthalpy of transition or fusion [kcal/mol]	Normal melting temperature [°C]
[1], Crystal 1, DTA	–	109.24
[2], Crystal 1	3.94	–

CCCC[N+](CC)(CC)CC.[Br-] [butyltriethyl ammonium bromide]
Conditions	Molar enthalpy of transition or fusion, Crystal 2 [kcal/mol]	Normal melting temperature, Crystal 1, DTA [°C]	Normal melting temperature, Crystal 1, visual observation [°C]
[1]	–	216.87	217.0
[2]	2.68	–	–

Conditions	Triple point temperature [K]
[1]	444.65

O [water]
Conditions	Normal melting temperature [°C]
[1], Crystal, visual observation	0.1

O [water] + CCCC[N+]1(C)CCCCC1.[Br-]
[3]
Conditions	mass density [kg/m3]	viscosity [mPa·s]
298.15 K	–	0.89
303.15 K	–	0.797
308.15 K	–	0.719
313.15 K	–	0.653
318.15 K	990.1	0.596
323.15 K	987.9	0.547
328.15 K	985.6	0.504
333.15 K	983.2	0.466
338.15 K	980.3	0.433
343.15 K	978.1	0.404
348.15 K	974.8	0.378

O [water] + CCCC[N+](CC)(CC)CC.[Br-]
[3]
Conditions	mass density [kg/m3]	viscosity [mPa·s]
298.15 K	–	0.89
303.15 K	–	0.797
308.15 K	–	0.719
313.15 K	–	0.653
318.15 K	990.1	0.596
323.15 K	987.9	0.547
328.15 K	985.6	0.504
333.15 K	983.2	0.466
338.15 K	980.3	0.433
343.15 K	978.1	0.404
348.15 K	974.8	0.378

O [water] + CCCC[n+]1ccccc1.[Br-]
[3]
Conditions	mass density [kg/m3]	viscosity [mPa·s]
298.15 K	–	0.89
303.15 K	–	0.797
308.15 K	–	0.719
313.15 K	–	0.653
318.15 K	990.1	0.596
323.15 K	987.9	0.547
328.15 K	985.6	0.504
333.15 K	983.2	0.466
338.15 K	980.3	0.433
343.15 K	978.1	0.404
348.15 K	974.8	0.378

O [water] + CC[N+]1(C)CCCCC1.[Br-]
[3]
Conditions	mass density [kg/m3]	viscosity [mPa·s]
298.15 K	–	0.89
303.15 K	–	0.797
308.15 K	–	0.719
313.15 K	–	0.653
318.15 K	990.1	0.596
323.15 K	987.9	0.547
328.15 K	985.6	0.504
333.15 K	983.2	0.466
338.15 K	980.3	0.433
343.15 K	978.1	0.404
348.15 K	974.8	0.378
